From patent US11247965B2 (VenatoRx Pharmaceuticals, Inc., priority 2017, dated 2022)

What was measured:
[1] = In vitro cytotoxicity, MTT cell viability assay in HepG2 cells; assay type: cell-based; details: human, Cytotoxicity CC50
Method in brief: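 CC50 values reflect loss of HepG2 viability after a 7-day exposure at 37 °C, 5% CO2. After 3-4 h with MTT, solubilized formazan was quantified at 492 nm relative to vehicle wells.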

[2] = test system: HBV replication in HepAD38 cells; assay: Anti-HBV activity in HepAD38 cells, extracellular HBV DNA by QPCR; assay type: cell-based, HBV (genotype D, serotype ayw); details: Hepatitis B virus, HePAD38, 168 h, read-out: Anti-HBV EC50, HepAD38 cells, extracellular HBV DNA by QPCR, 7 days of incubation
Method in brief: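 Seven-day compound exposure (30 μM down to 10 nM, half-log steps) after tetracycline withdrawal induced HBV replication in HepAD38 cells. Extracellular viral DNA measured by QPCR (copies/mL via standard curve), normalised to DMSO wells; EC50 from 4-parameter non-linear regression.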

SMILES	CC50 at 7 days [1] [µM]	EC50 [2] [µM]
CCn1cc(C(=O)Nc2ccc(F)c(C)c2)cc1C(F)(F)C(=O)NC(C)(C)C [Example 134, 5-(2-(tert-butylamino)-1,1-difluoro-2-oxoethyl)-1-ethyl-N-(4-fluoro-3-methylphenyl)-1H-pyrrole-3-carboxamide]	> 30	< 5
CCn1ccc(C(=O)Nc2ccc(F)c(C)c2)c1C(F)(F)C(=O)NC(C)(C)C [Example 135, 2-(2-(tert-butylamino)-1,1-difluoro-2-oxoethyl)-1-ethyl-N-(4-fluoro-3-methylphenyl)-1H-pyrrole-3-carboxamide]	> 30	5 to 30
CCC(C)NC(=O)C(F)(F)c1cc(C(=O)Nc2ccc(F)c(Cl)c2)cn1C (stereo not drawn) [Example 136, 5-(2-(sec-butylamino)-1,1-difluoro-2-oxoethyl)-N-(3-chloro-4-fluorophenyl)-1-methyl-1H-pyrrole-3-carboxamide]	> 30	5 to 30
Cn1ccc(C(=O)Nc2ccc(F)c(Cl)c2)c1C(F)(F)C(=O)NC(C)(C)C [Example 137, 2-(2-(tert-butylamino)-1,1-difluoro-2-oxoethyl)-N-(3-chloro-4-fluorophenyl)-1-methyl-1H-pyrrole-3-carboxamide]	> 30	< 5
Cn1cc(C(=O)Nc2ccc(F)c(Cl)c2)cc1C(F)(F)C(=O)NCCO [Example 138, N-(3-chloro-4-fluorophenyl)-5-(1,1-difluoro-2-((2-hydroxyethyl)amino)-2-oxoethyl)-1-methyl-1H-pyrrole-3-carboxamide]	> 30	5 to 30
C[C@H](NC(=O)C(F)(F)c1cc(C(=O)Nc2ccc(F)c(Cl)c2)cn1C)C(F)(F)F [Example 140, (S)-N-(3-chloro-4-fluorophenyl)-5-(1,1-difluoro-2-oxo-2-((1,1,1-trifluoropropan-2-yl)amino)ethyl)-1-methyl-1H-pyrrole-3-carboxamide]	> 30	< 5
C[C@H](NC(=O)C(F)(F)c1c(C(=O)Nc2ccc(F)c(Cl)c2)ccn1C)C(F)(F)F [Example 141]	> 30	5 to 30
Cn1cc(C(=O)Nc2ccc(F)c(Cl)c2)cc1C(F)(F)C(=O)N[C@@H]1CCOC1 [Example 142, (R)-N-(3-chloro-4-fluorophenyl)-5-(1,1-difluoro-2-oxo-2-((tetrahydrofuran-3-yl)amino)ethyl)-1-methyl-1H-pyrrole-3-carboxamide]	> 30	< 5
Cn1ccc(C(=O)Nc2ccc(F)c(Cl)c2)c1C(F)(F)C(=O)N[C@@H]1CCOC1 [Example 143, (R)-N-(3-chloro-4-fluorophenyl)-2-(1,1-difluoro-2-oxo-2-((tetrahydrofuran-3-yl)amino)ethyl)-1-methyl-1H-pyrrole-3-carboxamide]	> 30	5 to 30
Cn1cc(C(=O)Nc2ccc(F)c(Cl)c2)cc1C(F)(F)C(=O)NOC(C)(C)C [Example 144, 5-(2-(tert-butoxyamino)-1,1-difluoro-2-oxoethyl)-N-(3-chloro-4-fluorophenyl)-1-methyl-1H-pyrrole-3-carboxamide]	> 30	< 5
Cn1ccc(C(=O)Nc2ccc(F)c(Cl)c2)c1C(F)(F)C(=O)NOC(C)(C)C [Example 145, 2-(2-(tert-butoxyamino)-1,1-difluoro-2-oxoethyl)-N-(3-chloro-4-fluorophenyl)-1-methyl-1H-pyrrole-3-carboxamide]	> 30	5 to 30
Cn1cc(C(=O)Nc2ccc(F)c(Cl)c2)cc1C(F)(F)C(=O)NC1(C#N)CC1 [Example 146, N-(3-chloro-4-fluorophenyl)-5-(2-((1-cyanocyclopropyl)amino)-1,1-difluoro-2-oxoethyl)-1-methyl-1H-pyrrole-3-carboxamide]	> 30	< 5
